Reference: the NIST ThermoML archive (doi:10.1016/j.tca.2008.12.029)

Experiment: molar heat capacity at constant pressure
Conditions: 101.33 kPa, Crystal, Vacuum adiabatic calorimetry

O=C([O-])c1ccccc1.[Na+] [sodium benzoate]
Conditions | molar heat capacity at constant pressure [J/K/mol]
78.86 K | 74.66
80.43 K | 75.06
82.62 K | 76.58
84.79 K | 77.94
87.06 K | 79
89.08 K | 80.34
91.16 K | 81.6
93.24 K | 82.94
95.32 K | 83.73
97.26 K | 84.83
99.2 K | 86.09
101.14 K | 87.27
103.01 K | 88.2
104.89 K | 89.11
106.3 K | 89.81
107.72 K | 90.52
109.44 K | 91.63
111.32 K | 92.54
113.05 K | 93.55
114.93 K | 94.67
116.5 K | 95.37
118.38 K | 95.98
120.05 K | 97.43
122.61 K | 98.9
126.31 K | 100.57
129.87 K | 102.54
133.42 K | 104.11
137.05 K | 105.58
140.25 K | 107.64
143.52 K | 109.31
146.93 K | 111.38
150.2 K | 112.85
153.61 K | 114.42
156.74 K | 115.8
159.94 K | 117.1
163.08 K | 118.62
166.41 K | 120.71
169.54 K | 122.29
172.67 K | 124.15
175.8 K | 125.53
178.78 K | 127.2
182.05 K | 128.48
186.18 K | 130.74
190.73 K | 133.09
194.71 K | 134.96
198.69 K | 136.73
202.67 K | 138.89
206.65 K | 140.95
210.78 K | 143.02
214.62 K | 144.69
218.6 K | 147.24
222.72 K | 148.91
226.56 K | 150.78
230.54 K | 152.55
234.67 K | 154.3
238.65 K | 156.48
242.63 K | 158.35
247.75 K | 160.9
252.79 K | 162.99
256.71 K | 164.6
260.69 K | 166.7
264.71 K | 168.34
268.8 K | 170.63
272.92 K | 172.89
276.9 K | 174.76
280.74 K | 176.43
284.72 K | 178.39
288.7 K | 179.87
292.69 K | 181.54
295.1 K | 182.91
298.37 K | 184.58
301.36 K | 185.56
304.35 K | 186.94
307.33 K | 188.32
310.32 K | 189.49
313.3 K | 190.87
316.29 K | 191.75
319.28 K | 192.93
322.12 K | 194.21
325.11 K | 195.49
327.81 K | 196.77
329.51 K | 197.36
332.93 K | 198.63
335.35 K | 199.91
338.05 K | 200.79
340.89 K | 202.17
343.88 K | 202.96
346.72 K | 204.33
349.42 K | 205.02
352.27 K | 206.2
355.25 K | 207.28
358.1 K | 208.56
360.85 K | 209.38
363.79 K | 210.82
366.63 K | 212.19
369.62 K | 213.57
372.46 K | 214.53
375.3 K | 215.93
378.15 K | 217.2
380.99 K | 218.09
383.98 K | 219.66
386.68 K | 220.45
389.52 K | 221.82
392.37 K | 223.2
395.21 K | 224.18
397.91 K | 225.75
